According to US12403136B2, “Cannabinoid derivatives as pharmaceutically active compounds and methods of preparation thereof” (JAZZ PHARMACEUTICALS RESEARCH UK LIMITED, priority 2019, dated 2025):

Test system: mouse model of generalised seizure (tonic hind limb extensor convulsions)
Assay: Maximal electroshock seizure threshold (MEST) test in the mouse
Settings: for % change from vehicle: change in CC50; for CC50 +/− SEM: vehicle CC50 21.0 mA
Experimental: The efficacy of exemplary cannabinoid derivatives according to Formula I and Formula II were tested in a mouse model of generalised seizure, the maximal electroshock seizure threshold (MEST) test.
The maximal electroshock seizure threshold (MEST) test is widely utilized preclinically to evaluate pro- or anti-convulsant properties of test compounds (Loscher et al., 1991).
In the MEST test the ability of a drug to alter the seizure threshold current required to induce hind limb tonic extensor convulsions is measured according to an “up and down” method of shock titration (Kimball et al., 1957). An increase in seizure threshold is indicative of anti-convulsant effect.
Conversely, a reduction in seizure threshold is indicative of a pro-convulsant effect as observed with known convulsant agents such as picrotoxin.
The ability of a test compound to alter the stimulus intensity, expressed as current (mA), required to induce the presence of tonic hind limb extensor convulsions, is assessed in the MEST.
Naïve mice were acclimatised to the procedure room in their home cages for up to 7 days, with food and water available ad libitum.
All animals were weighed at the beginning of the study and randomly assigned to treatment groups based on a mean distribution of body weight across groups.
The first animal within a treatment group was given a shock at the expected or estimated CC50 current. For subsequent animals, the current was lowered or raised depending on the convulsions outcome from the preceding animal.
Data generated from each treatment group were used to calculate the CC50±SEM values for the treatment group.
Vehicle: (5% ethanol, 5% solutol in 90% Saline) was prepared as follows: 2 mL of ethanol, 2 mL of solutol were warmed to 60° C., in 36 mL of saline (1:1:18).
The test compounds used were 12a, 12b, 18a and 18b. Test compounds were administered at 200 mg/kg (i.p.) in a 1:1:18 ethanol:solutol:saline formulation.
The data for each treatment group were recorded as the number of +'s and 0's at each current level employed and this information is then used to calculate the CC50 value (current required for 50% of the animals to show seizure behaviour)±standard error.
Test compound effects were also calculated as percentage change in CC50 from the vehicle control group.
Significant difference between drug-treated animals and controls were assessed according to Litchfield and Wilcoxon (1949).

[1] = 200 mg/kg i.p., 120 min post dose
[2] = 200 mg/kg i.p., test 120 min post dose

C=C(C)[C@@H]1CCC(C)=C[C@H]1c1c(O)cc(O)c2c1OCC[C@H]2CC [Compound 18b]
% change from vehicle [1]: 92%
CC50 +/− SEM [2]: 40.3 +/− 0.8 mA

C=C(C)[C@@H]1CCC(C)=C[C@H]1c1c(O)cc(O)c2c1CCC[C@H]2CC [Compound 18a]
% change from vehicle [1]: 99%
CC50 +/− SEM [2]: 41.8 +/− 0.5 mA

C=C(C)[C@@H]1CCC(C)=C[C@H]1c1c(O)cc2c(c1O)[C@H](CC)CCO2 [Compound 12b]
% change from vehicle (200 mg/kg i.p., 30 min post dose): 109%
CC50 +/− SEM (200 mg/kg i.p., test 30 min post dose): 43.8 +/− 0.2 mA

C=C(C)[C@@H]1CCC(C)=C[C@H]1c1c(O)cc2c(c1O)[C@H](CC)CCC2 [Compound 12a]
% change from vehicle (200 mg/kg i.p., 60 min post dose): 157%
CC50 +/− SEM (200 mg/kg i.p., test 60 min post dose): 54.0 +/− 0.2 mA

CN1C(=O)CN=C(c2ccccc2)c2cc(Cl)ccc21 [Diazepam, diazepam, reference compound]
% change from vehicle (diazepam 2.5 mg/kg i.p., 30 min post dose): 66%
